Data published in publication PMC10756276, “Highly specific σ2R/TMEM97 ligand FEM-1689 alleviates neuropathic pain and inhibits the integrated stress response” (Proceedings of the National Academy of Sciences of the …, 2023).
Entries after “also recorded” stand apart in the source; their conditions may differ. Like-named read-outs stand apart in the source and are kept apart here.

Tests used:
5HT1e = 5HT1e (Homo sapiens, UniProt P28566); assay: PDSP competitive binding assay; settings: 10 µM test article; read-out: Ki: primary assay inhibition of radioligand binding, 5HT1e
5HT5a = molecular target: T1, 5HT5a (Homo sapiens, UniProt P47898); assay: PDSP competitive binding assay; settings: 10 µM test article; read-out: Ki: primary assay inhibition of radioligand binding, 5HT5a
T1 construct: purchased NIMH Psychoactive Drug Screening Program (PDSP), University of North Carolina at Chapel Hill

Alpha1d = molecular target: T2, Alpha1d (Homo sapiens, UniProt P25100); assay: PDSP competitive binding assay; settings: 10 µM test article; read-out: Ki: primary assay inhibition of radioligand binding, Alpha1d
T2 construct: purchased NIMH Psychoactive Drug Screening Program (PDSP), University of North Carolina at Chapel Hill

Alpha2a = molecular target: T3, Alpha2a (Homo sapiens, UniProt P08913); assay: PDSP competitive binding assay; settings: 10 µM test article; read-out: Ki: primary assay inhibition of radioligand binding, Alpha2a
T3 construct: purchased NIMH Psychoactive Drug Screening Program (PDSP), University of North Carolina at Chapel Hill

Alpha2c = molecular target: T4, Alpha2c (Homo sapiens, UniProt P18825); assay: PDSP competitive binding assay; settings: 10 µM test article; read-out: Ki: primary assay inhibition of radioligand binding, Alpha2c
T4 construct: purchased NIMH Psychoactive Drug Screening Program (PDSP), University of North Carolina at Chapel Hill

Beta1 = molecular target: T5, Beta1 (Homo sapiens, UniProt P08588); assay: PDSP competitive binding assay; settings: 10 µM test article; read-out: Ki: primary assay inhibition of radioligand binding, Beta1
T5 construct: purchased NIMH Psychoactive Drug Screening Program (PDSP), University of North Carolina at Chapel Hill

SERT = molecular target: T6, SERT (Homo sapiens, UniProt P31645); assay: PDSP competitive binding assay; settings: 10 µM test article; read-out: Ki: primary assay inhibition of radioligand binding, SERT
T6 construct: purchased NIMH Psychoactive Drug Screening Program (PDSP), University of North Carolina at Chapel Hill

Beta 3 = molecular target: T7, Beta 3 (Homo sapiens, UniProt P13945); assay: PDSP competitive binding assay; settings: 10 µM test article; read-out: Ki: primary assay inhibition of radioligand binding, Beta 3
T7 construct: purchased NIMH Psychoactive Drug Screening Program (PDSP), University of North Carolina at Chapel Hill

D5 = D5 (Homo sapiens, UniProt P21918); assay: PDSP competitive binding assay; settings: 10 µM test article; read-out: Ki: primary assay inhibition of radioligand binding, D5
M2 = M2 (Homo sapiens, UniProt P08172); assay: PDSP competitive binding assay; settings: 10 µM test article; read-out: Ki: primary assay inhibition of radioligand binding, M2
M4 = molecular target: T8, M4 (Homo sapiens, UniProt P08173); assay: PDSP competitive binding assay; settings: 10 µM test article; read-out: Ki: primary assay inhibition of radioligand binding, M4
T8 construct: purchased NIMH Psychoactive Drug Screening Program (PDSP), University of North Carolina at Chapel Hill

M5 = molecular target: T9, M5 (Homo sapiens, UniProt P08912); assay: PDSP competitive binding assay; settings: 10 µM test article; read-out: Ki: primary assay inhibition of radioligand binding, M5
T9 construct: purchased NIMH Psychoactive Drug Screening Program (PDSP), University of North Carolina at Chapel Hill

[1] = Pharmacokinetic parameters after IP dosing (Fig. 2); format: in vivo
[2] = tested on: SNI model of neuropathic pain, wild-type and TMEM97KO mice; assay: SNI model of neuropathic pain, von Frey mechanical hypersensitivity; format: in vivo, mouse; settings: for mechanical hypersensitivity after SNI (von Frey): male and female
[3] = tested on: p-ACC in mouse DRG neurons; assay: p-ACC immunocytochemistry in cultured DRG neurons; format: cell-based; settings: 16 h; FEM-1689 10, 100, 1,000 nM; A769662 100 µM; wild-type and TMEM97KO neurons
Description: The ICC protocol was based on a previously published protocol ([76]). […] Cells were blocked with 10% normal goat serum (NGS) in PBS-triton X (0.1%). […] Antibodies were incubated at 4 °C overnight. […] It was washed with PBS twice. […] Images were analyzed using Olympus CellSens. […] Number of cells analyzed are detailed in SI Appendix, Tables S3 and S4. […]
T his BSA gradient containing the cells was centrifuged at 900g for 5 min at room temperatur e.
The pellet containing the cells was resuspended in Br ainPhys media (STEMCell #05790) containing 2% […]
1% Gluta Max (Gibco # 350 5 0061). Hu man DRG ne uron s were plated a nd grown o n glass coverslips coate d with po ly-D-lysine (Sigma #P7405). C ultured D RG neurons were plated for 24 hours before being treated.
Methylglyoxal (Sigma- Aldrich #M0252) and F EM- 1689 were serially diluted in media.
Mouse samples - DRG cultures […]
anesthesia and decapitated. […]
section above with minor differences.
Mouse DRG neurons were grown in
SAS-0132 and DKR-1677 were […]
dissolved in 100% DMSO to a final concentr ation of 200mM and stored at - 20 °C. and DKR-1677 were serially diluted in media. Untreated media was completely replaced with media containing each compound. […]
Slides were […]
incubated with 1:2 diluted hydrogen peroxide in distilled water for 10 min at r oom temper ature and washed twice in distilled water. […]

[4] = tested on: MGO-induced mechanical hypersensitivity, wild-type mice; assay: Methylglyoxal-induced mechanical hypersensitivity; format: in vivo, mouse; settings: MGO 20 ng intraplantar; FEM-1689 20 mg/kg IV or ISRIB 2.5 mg/kg IP 24 h after MGO
[5] = tested on: p-eIF2α in human DRG neurons; assay: p-eIF2α immunocytochemistry in cultured human DRG neurons; format: cell-based
H4 = H4 (Homo sapiens, UniProt Q9H3N8); assay: PDSP competitive binding assay
NET = NET (Homo sapiens, UniProt P23975); assay: PDSP competitive binding assay
σ2R/TMEM97 = σ2R/TMEM97 (Homo sapiens, UniProt Q5BJF2); assay: Competition binding with [3H]-ditolylguanidine in presence of (+)-pentazocine (NIMH PDSP)
Chain of σ2R/TMEM97 (Q5BJF2 whole entry): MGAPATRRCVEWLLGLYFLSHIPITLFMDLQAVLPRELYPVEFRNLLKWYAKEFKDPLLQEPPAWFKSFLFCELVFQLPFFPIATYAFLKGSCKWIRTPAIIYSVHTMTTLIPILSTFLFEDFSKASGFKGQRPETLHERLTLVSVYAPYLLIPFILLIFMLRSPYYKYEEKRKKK

Chain of H4 (Q9H3N8 whole entry): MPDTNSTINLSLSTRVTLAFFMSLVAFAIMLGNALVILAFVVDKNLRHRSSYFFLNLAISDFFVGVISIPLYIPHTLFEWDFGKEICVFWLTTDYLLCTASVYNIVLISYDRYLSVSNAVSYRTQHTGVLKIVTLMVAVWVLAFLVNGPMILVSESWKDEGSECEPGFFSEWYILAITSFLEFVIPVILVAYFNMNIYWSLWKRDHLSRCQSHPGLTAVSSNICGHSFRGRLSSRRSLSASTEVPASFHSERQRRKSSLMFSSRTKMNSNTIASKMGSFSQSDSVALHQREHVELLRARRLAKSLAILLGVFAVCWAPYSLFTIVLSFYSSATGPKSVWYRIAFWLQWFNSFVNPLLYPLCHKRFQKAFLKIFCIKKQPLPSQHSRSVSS
Chain of NET (P23975 whole entry): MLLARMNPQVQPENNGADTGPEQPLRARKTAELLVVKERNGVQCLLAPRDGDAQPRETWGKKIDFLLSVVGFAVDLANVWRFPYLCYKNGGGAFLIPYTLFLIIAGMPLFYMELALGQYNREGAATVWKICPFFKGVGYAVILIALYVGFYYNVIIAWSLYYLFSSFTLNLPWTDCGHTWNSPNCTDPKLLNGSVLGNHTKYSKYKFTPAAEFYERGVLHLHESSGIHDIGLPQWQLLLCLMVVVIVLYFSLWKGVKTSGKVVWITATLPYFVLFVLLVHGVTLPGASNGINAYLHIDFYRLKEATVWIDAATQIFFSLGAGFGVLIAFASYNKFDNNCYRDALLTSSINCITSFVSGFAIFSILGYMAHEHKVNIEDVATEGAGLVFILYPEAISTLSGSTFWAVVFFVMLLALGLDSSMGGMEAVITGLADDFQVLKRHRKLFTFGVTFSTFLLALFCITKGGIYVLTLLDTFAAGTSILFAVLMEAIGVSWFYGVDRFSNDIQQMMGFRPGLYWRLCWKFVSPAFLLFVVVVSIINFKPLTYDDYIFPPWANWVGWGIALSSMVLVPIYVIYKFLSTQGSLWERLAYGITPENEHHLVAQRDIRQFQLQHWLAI
T1 sequence (P47898 whole entry): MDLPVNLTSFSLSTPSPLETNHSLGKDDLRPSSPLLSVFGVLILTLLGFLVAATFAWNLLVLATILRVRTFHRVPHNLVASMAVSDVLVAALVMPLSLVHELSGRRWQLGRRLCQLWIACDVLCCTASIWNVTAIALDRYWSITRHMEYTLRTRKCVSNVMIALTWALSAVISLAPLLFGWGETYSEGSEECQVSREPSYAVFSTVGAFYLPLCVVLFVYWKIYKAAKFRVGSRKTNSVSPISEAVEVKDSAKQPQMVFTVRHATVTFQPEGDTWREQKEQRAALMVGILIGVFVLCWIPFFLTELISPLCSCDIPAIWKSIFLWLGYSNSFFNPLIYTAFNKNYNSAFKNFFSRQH
Chain of D5 (P21918 whole entry): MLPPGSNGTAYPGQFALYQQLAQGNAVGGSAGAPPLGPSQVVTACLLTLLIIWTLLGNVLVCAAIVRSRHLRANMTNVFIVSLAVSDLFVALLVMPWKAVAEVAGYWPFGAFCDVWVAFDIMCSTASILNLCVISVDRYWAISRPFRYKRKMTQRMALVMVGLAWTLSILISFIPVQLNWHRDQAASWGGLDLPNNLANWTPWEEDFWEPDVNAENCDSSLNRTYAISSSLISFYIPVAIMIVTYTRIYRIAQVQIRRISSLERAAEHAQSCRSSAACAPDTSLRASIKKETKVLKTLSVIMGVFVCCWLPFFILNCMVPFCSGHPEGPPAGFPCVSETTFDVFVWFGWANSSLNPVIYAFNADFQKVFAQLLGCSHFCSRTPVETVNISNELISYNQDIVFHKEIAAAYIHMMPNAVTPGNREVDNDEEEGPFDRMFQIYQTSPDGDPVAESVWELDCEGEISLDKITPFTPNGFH
T4 sequence (P18825 whole entry): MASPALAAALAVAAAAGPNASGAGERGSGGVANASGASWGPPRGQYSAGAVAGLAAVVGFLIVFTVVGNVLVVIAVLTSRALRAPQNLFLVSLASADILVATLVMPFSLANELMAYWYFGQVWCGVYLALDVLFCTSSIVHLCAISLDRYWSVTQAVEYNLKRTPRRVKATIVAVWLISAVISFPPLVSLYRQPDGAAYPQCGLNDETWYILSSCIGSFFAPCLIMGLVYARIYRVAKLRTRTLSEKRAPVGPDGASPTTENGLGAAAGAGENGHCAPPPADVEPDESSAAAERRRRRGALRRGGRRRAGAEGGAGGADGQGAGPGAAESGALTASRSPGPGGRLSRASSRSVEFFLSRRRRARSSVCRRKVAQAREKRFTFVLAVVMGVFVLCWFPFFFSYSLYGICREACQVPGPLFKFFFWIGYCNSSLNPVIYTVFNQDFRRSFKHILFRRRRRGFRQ
T5 sequence (P08588 whole entry): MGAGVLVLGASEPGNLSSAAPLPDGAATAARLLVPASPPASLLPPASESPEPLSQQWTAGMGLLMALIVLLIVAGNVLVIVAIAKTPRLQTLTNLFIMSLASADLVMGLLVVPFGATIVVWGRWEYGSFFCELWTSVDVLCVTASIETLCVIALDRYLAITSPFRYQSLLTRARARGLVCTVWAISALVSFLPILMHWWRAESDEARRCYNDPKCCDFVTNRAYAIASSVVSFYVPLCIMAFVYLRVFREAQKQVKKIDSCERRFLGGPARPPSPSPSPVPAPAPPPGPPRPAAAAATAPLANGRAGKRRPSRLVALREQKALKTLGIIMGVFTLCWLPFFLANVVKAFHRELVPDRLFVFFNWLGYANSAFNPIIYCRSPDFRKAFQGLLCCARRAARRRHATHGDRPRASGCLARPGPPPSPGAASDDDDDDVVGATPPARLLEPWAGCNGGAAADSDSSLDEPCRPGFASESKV
T3 sequence (P08913 whole entry): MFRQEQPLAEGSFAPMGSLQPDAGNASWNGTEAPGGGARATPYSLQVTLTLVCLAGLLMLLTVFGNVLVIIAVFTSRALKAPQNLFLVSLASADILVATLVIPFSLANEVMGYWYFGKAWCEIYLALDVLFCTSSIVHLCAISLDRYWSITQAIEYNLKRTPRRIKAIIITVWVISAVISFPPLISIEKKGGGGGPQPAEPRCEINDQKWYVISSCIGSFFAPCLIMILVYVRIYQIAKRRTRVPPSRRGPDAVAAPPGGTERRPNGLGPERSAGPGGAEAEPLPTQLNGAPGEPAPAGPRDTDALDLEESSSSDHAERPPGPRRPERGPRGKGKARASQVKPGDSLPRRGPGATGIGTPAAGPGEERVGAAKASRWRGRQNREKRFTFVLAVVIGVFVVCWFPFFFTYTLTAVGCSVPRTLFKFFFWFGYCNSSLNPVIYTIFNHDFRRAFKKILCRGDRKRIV
Chain of 5HT1e (P28566 whole entry): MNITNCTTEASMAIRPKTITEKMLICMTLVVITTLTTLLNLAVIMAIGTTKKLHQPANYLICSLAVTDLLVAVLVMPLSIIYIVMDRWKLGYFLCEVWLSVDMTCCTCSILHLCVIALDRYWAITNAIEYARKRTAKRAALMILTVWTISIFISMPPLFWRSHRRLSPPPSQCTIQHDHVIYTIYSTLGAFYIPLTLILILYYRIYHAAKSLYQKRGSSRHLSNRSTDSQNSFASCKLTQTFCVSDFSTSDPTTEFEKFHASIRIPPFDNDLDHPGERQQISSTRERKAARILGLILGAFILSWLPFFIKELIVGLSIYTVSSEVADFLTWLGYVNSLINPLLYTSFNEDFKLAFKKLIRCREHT
T9 sequence (P08912 whole entry): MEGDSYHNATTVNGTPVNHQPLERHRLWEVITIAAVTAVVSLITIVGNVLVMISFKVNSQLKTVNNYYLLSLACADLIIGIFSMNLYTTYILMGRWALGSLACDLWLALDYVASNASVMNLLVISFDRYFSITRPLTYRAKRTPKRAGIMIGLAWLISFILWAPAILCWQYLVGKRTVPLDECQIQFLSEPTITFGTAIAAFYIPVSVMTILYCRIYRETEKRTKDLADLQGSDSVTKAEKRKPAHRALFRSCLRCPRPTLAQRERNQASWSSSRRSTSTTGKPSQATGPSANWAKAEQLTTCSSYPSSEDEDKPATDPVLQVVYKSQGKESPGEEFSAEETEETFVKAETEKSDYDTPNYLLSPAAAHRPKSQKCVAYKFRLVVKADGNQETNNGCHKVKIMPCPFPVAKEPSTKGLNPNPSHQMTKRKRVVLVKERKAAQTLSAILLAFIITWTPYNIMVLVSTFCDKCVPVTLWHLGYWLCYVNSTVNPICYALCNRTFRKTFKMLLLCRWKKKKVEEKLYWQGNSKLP
Chain of M2 (P08172 whole entry): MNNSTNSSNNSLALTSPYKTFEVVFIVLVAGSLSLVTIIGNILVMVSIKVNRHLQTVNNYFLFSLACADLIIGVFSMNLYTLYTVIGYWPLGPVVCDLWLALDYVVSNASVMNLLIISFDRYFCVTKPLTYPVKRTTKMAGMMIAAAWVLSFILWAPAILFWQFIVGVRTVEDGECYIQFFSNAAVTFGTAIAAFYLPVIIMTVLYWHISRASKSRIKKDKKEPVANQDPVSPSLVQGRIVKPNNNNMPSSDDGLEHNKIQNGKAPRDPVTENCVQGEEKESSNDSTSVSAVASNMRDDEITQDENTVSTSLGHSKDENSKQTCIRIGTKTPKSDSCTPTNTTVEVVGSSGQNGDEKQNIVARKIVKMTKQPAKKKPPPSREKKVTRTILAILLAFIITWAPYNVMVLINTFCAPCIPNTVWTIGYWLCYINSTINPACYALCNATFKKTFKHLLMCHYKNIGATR

OCCCN1CC[C@@H]2C[C@H]1c1cc(-c3ccc(C(F)(F)F)cc3)ccc12 [FEM-1689] gave an inhibition at 10 µM (5HT1e) of less than 50%, an inhibition at 10 µM (5HT5a) of less than 50% and an inhibition at 10 µM (Alpha1d) of less than 50%. For the same molecule, the inhibition at 10 µM (Alpha2a) was less than 50%, the inhibition at 10 µM (Alpha2c) was less than 50% and the inhibition at 10 µM (Beta1) was less than 50%. The inhibition at 10 µM (SERT) was less than 50%, the inhibition at 10 µM (Beta 3) was less than 50% and the inhibition at 10 µM (D5) was less than 50%. The inhibition at 10 µM (M2) was less than 50%, the inhibition at 10 µM (M4) was less than 50% and the inhibition at 10 µM (M5) was less than 50%. For the same molecule, the “brain to plasma ratio (AUClast)” value ([1]; IP) was 20.5, the “Cmax (IP)” value ([1]; brain, IP) was 10916 ng/mL and the t1/2 (IP) ([1]; brain, IP) was 11.4 h. For the same molecule, the brain entry ([1]; pharmacokinetic experiments, Fig. 2) was “readily enters the brain”, the “Cmax (IP)” value ([1]; plasma, IP) was 508 ng/mL and the “t1/2 (IP)” value ([1]; plasma, IP) was 21.7 h. The “mechanical hypersensitivity after SNI (von Frey)” value ([2]; single 10 mg/kg IV, 30 d after SNI, wild-type and TMEM97KO, 7 d, 10 mg/kg) was “little or no change for mechanical sensitivity in either group; also recorded: not sufficient to reduce mechanical hypersensitivity”, the “mechanical hypersensitivity after SNI (von Frey)” value ([2]; single 20 mg/kg IV, TMEM97KO mice, 20 mg/kg) was “failed to reduce mechanical hypersensitivity” and the “duration of reversal of mechanical hypersensitivity” value ([2]; single 20 mg/kg IV, wild-type mice) was “roughly 4 d”. For the same molecule, the “mechanical hypersensitivity after SNI (von Frey)” value ([2]; single 20 mg/kg IV, wild-type mice, 20 mg/kg) was “effectively reversed mechanical hypersensitivity; also recorded: maximal antinociceptive effect”, the p-ACC levels [3] was “remained unchanged; also recorded: no change in p-ACC levels” and the MGO-induced mechanical hypersensitivity [4] was “completely reversed MGO-induced mechanical hypersensitivity; also recorded: alleviated mechanical hypersensitivity for the duration of the pain state”. For the same molecule, the p-eIF2α levels ([5]; 10 and 100 nM, 16 h) was “significantly reduced p-eIF2α levels”, the “MGO-induced increase in p-eIF2α” value ([5]; cotreatment MGO 1 µM and FEM-1689 100 nM) was “prevented this increase; also recorded: prevented an increase in p-eIF2α” and the “LogKi, H4” value (H4; dose response curve, given as LogKi with negative sign) was -5.26. For the same molecule, the Ki (H4; read-out: H4 Ki, single determination) was 5510 nM, the Ki (H4; read-out: Ki, H4, dose response curve) was 5510 nM and the Ki (NET; Ki, NET, Run 1) was 668 nM. It also gave a Ki (NET; Ki, NET, Run 2) of 221 nM, a Ki (NET; Ki, NET, Run 3) of 209 nM and a Ki (NET; Ki, NET, Run 4) of 519 nM. The “selectivity for σ2R/TMEM97 vs NET” value (NET; ratio of Ki) was 24 fold, the Ki (NET; read-out: NET Ki, average of four Ki determinations) was 405 ± 227 nM and the Ki (σ2R/TMEM97) was 11.2 nM. The Ki (σ2R/TMEM97; read-out: σ2R/TMEM97 Ki, averages ± SD) was 17 ± 8 nM.
